Values of other authors in patent publication US8263638B2, “Dosing regimens for ion channel modulating compounds” (priority 2004, dated 2012).
Read-outs that look alike come from different tables or passages of the source.

Tested on: rabbit Purkinje fibers
Conditions: cited from earlier work

Structure (SMILES)	increase of APD90 (10 μM, rabbit)	increase of APD90 (10 nM, rabbit Purkinje fibers, BCL=1000 ms)
C=C[C@H]1C[N@@]2CC[C@H]1C[C@@H]2[C@@H](O)c1ccnc2ccc(OC)cc12 [quinidine]	93%	
CN(CCOc1ccc(NS(C)(=O)=O)cc1)CCc1ccc(NS(C)(=O)=O)cc1 [dofetilide]		83%
